Where a name gives a salt, the structure may show the parent alone.
Tests used:
serotonin 1A receptor = biological target: T1, serotonin 1A receptor (Rattus norvegicus, UniProt P19327); experiment: Binding test on [3H] 8-hydroxy-dipropylaminotetralin, hippocampus receptor fraction; parameters: species or system SD rats; details: rat hippocampus receptor fraction, 0.5 nM [3H] 8-OH-DPAT, room temperature 30 min; read-out: 5HT1
T1 construct: To the receptor fraction of the hippocampus were added a test compound and 0.5 nM of [^3H]; 8-hydroxy-dipropylaminotetralin; from tissue; host or cells: rat hippocampus membrane fraction
T1 sequence (P19327 1-422): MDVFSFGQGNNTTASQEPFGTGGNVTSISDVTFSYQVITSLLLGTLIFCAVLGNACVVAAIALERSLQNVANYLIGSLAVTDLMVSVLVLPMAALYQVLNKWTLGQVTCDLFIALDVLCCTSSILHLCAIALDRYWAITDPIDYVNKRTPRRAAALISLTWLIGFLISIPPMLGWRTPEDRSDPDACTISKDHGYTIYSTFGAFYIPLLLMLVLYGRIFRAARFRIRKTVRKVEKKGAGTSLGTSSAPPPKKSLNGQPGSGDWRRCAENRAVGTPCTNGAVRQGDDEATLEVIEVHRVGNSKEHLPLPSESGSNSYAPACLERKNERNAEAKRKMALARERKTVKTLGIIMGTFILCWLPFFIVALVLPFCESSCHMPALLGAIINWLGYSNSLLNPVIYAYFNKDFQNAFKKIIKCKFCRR

serotonin 2 receptor = biological target: T2, serotonin 2 receptor (Rattus norvegicus, UniProt P14842); experiment: Binding test on [3H] ketanserin, cerebral cortex receptor fraction; parameters: species or system SD rats; details: 0.3 nM [3H] ketanserin, 37° C. 15 min, read-out: 5HT2
T2 construct: To the receptor fraction of the cerebral cortex were added a test compound and 0.3 nM of [^3H] ketanserin; from tissue; host or cells: rat cerebral cortex membrane fraction
T2 sequence (P14842 whole entry): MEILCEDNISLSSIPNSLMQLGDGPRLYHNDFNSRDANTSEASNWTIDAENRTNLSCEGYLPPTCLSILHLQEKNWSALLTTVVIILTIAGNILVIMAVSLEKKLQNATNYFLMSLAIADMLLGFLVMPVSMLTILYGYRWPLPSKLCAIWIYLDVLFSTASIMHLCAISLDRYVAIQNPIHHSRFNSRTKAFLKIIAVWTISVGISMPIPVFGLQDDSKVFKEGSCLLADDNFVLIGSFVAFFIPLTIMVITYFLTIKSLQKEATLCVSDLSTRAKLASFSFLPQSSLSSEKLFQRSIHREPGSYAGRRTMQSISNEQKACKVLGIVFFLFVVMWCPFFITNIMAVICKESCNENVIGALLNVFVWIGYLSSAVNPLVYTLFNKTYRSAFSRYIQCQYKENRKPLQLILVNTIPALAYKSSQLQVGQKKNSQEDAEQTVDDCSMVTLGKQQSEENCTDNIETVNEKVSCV
Procedure: Methysergide maleate was dissolved in distilled water before using.
Use was made of SD rats aged 6 to 8 weeks.
The rats were sacrificed by dcapitation to extirpate the cerebra.
Each mixture was homogenized by using a Teflon glass homogenizer and centrifuged as 1,000× g for 10 min. The supernatant thus obtained was further centrifuged at 20,000× g for 20 min. […] After centrifuging at 20,000× g for 20 min, the obtained precipitate was further suspended and centrifuged twice each in the same manner. […] This receptor fraction was stored at −80° C. until using.
To the receptor fraction of the cerebral cortex were added a test compound and 0.3 nM of [^3H] ketanserin and the resultant mixture was incubated at 37° C. for 15 min. Next, it was filtered through a glass filter with the use of a cell harvester. After washing the glass filter with 50 mM Tris hydrochloride (pH 7.4), the radioactivity of the receptor was measured with a liquid scintillation counter. The binding detected in the presence of 1 μM of methysergide was referred to as the nonspecific binding.
IC50 was calculated by the probit method, while Ki was determined in accordance with the following formula: Ki=IC50(1+c/Kd) wherein c represents the concentration of the radioisotope-labeled compound, and Kd represents the dissociation constant of the radioisotope-labeled compound with respect to the receptor determined by Scatchard's analysis.

SMILES	Ki (serotonin 1A receptor)	Ki (serotonin 2 receptor)
CCCCNC(=O)Cc1ccc(-c2cc3ccccc3c(N3CCN(CC)CC3)n2)cc1 [Example 89, 3-(4-Butylaminocarbonylmethylphenyl)-1-(4-ethylpiperazin-1-yl)isoquinoline Hydrochloride]	6.3 nM	10 nM
CCN1CCN(c2nc(-c3ccc(CS(C)(=O)=O)cc3)cc3ccccc23)CC1 [Example 90, 3-(4-Methylsulfonylmethylphenyl)-1-(4-ethylpiperazin-1-yl)isoquinoline Hydrochloride]	4.5 nM	12.9 nM
CCN1CCN(c2nc(-c3ccc(CNS(=O)(=O)CC)c(Cl)c3)cc3ccccc23)CC1 [Example 91, 3-(3-Chloro-4-ethylsulfonylaminomethylphenyl)-1-(4-ethylpiperazin-1-yl)isoquinoline Hydrochloride]	1.1 nM	1.6 nM
CCCS(=O)(=O)NCc1ccc(-c2cc3ccccc3c(N3CCN(CC)CC3)n2)cc1Cl [Example 92, 3-(3-Chloro-4-propylsulfonylaminomethylphenyl)-1-(4-ethylpiperazin-1-yl)isoquinoline Hydrochloride]	0.9 nM	0.7 nM
CCN1CCN(c2nc(-c3ccc(CN4CCOCC4)cc3)cc3ccccc23)CC1 [Example 93, 3-(4-Morpholinylmethylphenyl)-1-(4-ethylpiperazin-1-yl)isoquinoline Hydrochloride]	10.8 nM	56.7 nM
CCN1CCN(c2nc(-c3ccc(CN4CCSCC4)cc3)cc3ccccc23)CC1 [Example 94, 3-(4-Thiomorpholinylmethylphenyl)-1-(4-ethylpiperazin-1-yl)isoquinoline Hydrochloride]	6.4 nM	41.2 nM
CCN1CCN(c2nc(-c3ccc(N4CCOC4=O)cc3)cc3ccccc23)CC1 [Example 95, 3-[4-(3-Oxazolidinone)phenyl]-1-(4-ethylpiperazin-1-yl)isoquinoline Hydrochloride]	7.8 nM	21.2 nM
CCN1CCN(c2nc(-c3ccc(N4CCC5(CC4)OCCO5)cc3)cc3ccccc23)CC1 [Example 96, 3-[4-(4,4-Ethylenedioxypiperidin-1-yl)phenyl]-1-(4-ethylpiperazin-1-yl)isoquinoline]	138 nM	0.1 nM
CCN1CCN(c2nc(-c3ccc(N4CCC(O)CC4)cc3)cc3ccccc23)CC1 [Example 97, 1-(4-Ethylpiperazin-1-yl)-3-[4-(4-hydroxypiperidin-1-yl)phenyl]isoquinoline Trihydrochloride]	34.7 nM	13.3 nM
CCN1CCN(c2nc(-c3ccc(N4CCC(OC)CC4)cc3)cc3ccccc23)CC1 [Example 98, 1-(4-Ethylpiperazin-1-yl)-3-[4-(4-methoxypiperidin-1-yl)phenyl]isoquinoline Trihydrochloride]	61.6 nM	2.7 nM
CCN1CCN(c2nc(-c3ccc(N4CCN(C(C)=O)CC4)nc3)cc3ccccc23)CC1 [Example 99, 3-[2-(4-Acetylpiperazin-1-yl)pyridin-5-yl]-1-(4-ethylpiperazin-1-yl)isoquinoline Trihydrochloride]	3.5 nM	6.2 nM
CCN1CCN(c2nc(-c3ccc(N4CCN(C(C)=O)CC4)cc3)cc3ccccc23)CC1 [Example 100, 3-[4-(4-Acetylpiperazin-1-yl)phenyl]-1-(4-ethylpiperazin-1-yl)isoquinoline Trihydrochloride]	12.7 nM	5.6 nM
CCN1CCN(c2nc(C(C)c3ccc(OC)cc3)cc3ccccc23)CC1 (stereo not drawn) [Example 102, 3-[α-Methyl-(4-methoxybenzyl)]-1-(4-ethylpiperazin-1-yl)isoquinoline Oxalate]	129 nM	132 nM
CCN1CCN(c2nc(C(O)c3ccc(OC)cc3)cc3ccccc23)CC1 (stereo not drawn) [Example 104, 3-[α-Hydroxy-(4-methoxybenzyl)]-1-(4-ethylpiperazin-1-yl)isoquinoline Oxalate]	109 nM	101 nM
CCN1CCN(c2nc(CCc3ccc(OC)cc3)cc3ccccc23)CC1 [Example 106, 1-(1-Ethylpiperazin-4-yl)-3-(4-methoxyphenethyl)isoquinoline]	70 nM	30.6 nM
CCN1CCN(c2nc(CCc3cccc(OCCO)c3)cc3ccccc23)CC1 [Example 108, 1-(1-Ethylpiperazin-4-yl)-3-[3-(2-hydroxyethoxy)phenethyl]isoquinoline]	157 nM	33.8 nM
CCN1CCN(c2nc(CCCc3ccccc3OCCO)cc3ccccc23)CC1 [Example 110, 1-(1-Ethylpiperazin-4-yl)-3-[3-[2-(2-hydroxyethoxy)phenyl]propyl]isoquinoline]	58.6 nM	109 nM
CCN1CCN(c2nc(C(=O)c3ccccc3OC)cc3ccccc23)CC1 [Example 111, 3-(2-Methoxyphenylcarbonyl)-1-(4-ethylpiperazin-1-yl)isoquinoline Oxalate]	10.3 nM	89.9 nM

SMILES	Ki (serotonin 1A receptor)	Ki (serotonin 2 receptor)
CCN1CCN(c2nc(C3CCc4ccc(OC)cc43)cc3ccccc23)CC1 (stereo not shown) [Example 114, 3-(6-Methoxyindan-1-yl)-1-(4-ethylpiperazin-1-yl)isoquinoline Oxalate]	167 nM	49.9 nM
CCN1CCN(c2nc(-c3ccc4c(c3)CC(CO)CO4)cc3ccccc23)CC1 (stereo not shown) [Example 122, 3-(3-Hydroxymethylchroman-6-yl)-1-(4-Ethylpiperazin-1-yl)Isoquinoline Hydrochloride]	40.1 nM	19.9 nM
CCN1CCN(c2nc(-c3ccc(OCCO)nc3)cc3ccccc23)CC1 [Example 125, 1-(1-Ethylpiperazin-4-yl)-3-[2-(2-Hydroxyethoxy)Pyridin-5-yl]Isoquinoline]	27.1 nM	6.9 nM
CCCC(=O)Nc1ccc(-c2cc3ccccc3c(N3CCN(CC)CC3)n2)cn1 [Example 128, 3-(2-propylcarbonylaminopyridin-5-yl)-1-(4-ethylpiperazin-1-yl)isoquinoline hydrochloride]	22.2 nM	3 nM
CCN1CCN(c2nc(-c3ccc(S(C)(=O)=O)nc3)cc3ccccc23)CC1 [Example 129, 3-[(2-Methylsulfonylpyridin)-5-yl]-1-(4-Ethylpiperazin-1-yl)Isoquinoline Hydrochloride]	21.6 nM	18.4 nM
CCN1CCN(c2nc(-c3ccc(S(=O)(=O)CC)nc3)cc3ccccc23)CC1 [Example 130, 3-[(2-Ethylsulfonylpyridin)-5-yl]-1-(4-Ethylpiperazin-1-yl)Isoquinoline Hydrochloride]	24.4 nM	17 nM
CCCCc1ccc(-c2cc3ccccc3c(N3CCN(CC)CC3)n2)cn1 [Example 131, 1-(1-Ethylpiperazin-4-yl)-3-(2-Butylpyridin-5-yl)Isoquinoline]	6.4 nM	5.8 nM
CCN1CCN(c2nc(-c3ccc(CCCF)cn3)cc3ccccc23)CC1 [Example 132, 1-(1-Ethylpiperazin-4-yl)-3-[5-(3-Fluoropropyl)Pyridin-2-yl)Isoquinoline]	1.5 nM	23.4 nM
CCN1CCN(c2nc(-c3ccc(CCCF)nc3)cc3ccccc23)CC1 [Example 133, 1-(1-Ethylpiperazin-4-yl)-3-[2-(3-Fluoropropyl)Pyridin-5-yl]Isoquinoline]	2.9 nM	6.2 nM
CCN1CCN(c2nc(-c3ccc(CCCO)cn3)cc3ccccc23)CC1 [Example 134, 1-(1-Ethylpiperazin-4-yl)-3-[5-(3-Hydroxypropyl)Pyridin-2-yl]Isoquinoline]	4.9 nM	12.4 nM
CCN1CCN(c2nc(-c3ccc(CCCO)nc3)cc3ccccc23)CC1 [Example 135, 1-(1-Ethylpiperazin-4-yl)-3-[2-(3-Hydroxypropyl)Pyridin-5-yl]Isoquinoline]	3.4 nM	18.9 nM
CCN1CCN(c2nc(-c3ccc(CCC(C)O)nc3)cc3ccccc23)CC1 (stereo not shown) [Example 136, 1-(1-Ethylpiperazin-4-yl)-3-[2-(3-Hydroxybutyl)Pyridin-5-yl]Isoquinoline]	3.7 nM	11.6 nM
CCN1CCN(c2nc(-c3ccc(CCCCO)nc3)cc3ccccc23)CC1 [Example 137, 1-(1-Ethylpiperazin-4-yl)-3-[2-(4-Hydroxybutyl)Pyridin-5-yl]Isoquinoline]	7.2 nM	32.5 nM
CCN1CCN(c2nc(-c3ccc(CCC(C)(C)O)nc3)cc3ccccc23)CC1 [Example 138, 1-(1-Ethylpiperazin-4-yl)-3-[2-(3-Hydroxy-3-Methylbutyl)Pyridin-5-yl]Isoquinoline Oxalate]	13.5 nM	5.5 nM
CCN1CCN(c2nc(-c3cncc(CCCOC)c3)cc3ccccc23)CC1 [Example 140, 1-(1-Ethylpiperazin-4-yl)-3-[3-(3-Methoxypropyl)Pyridin-5-yl]Isoquinoline Oxalate]	22.1 nM	36.7 nM
CCN1CCN(c2nc(-c3ccc(CCCOC)cn3)cc3ccccc23)CC1 [Example 141, 1-(1-Ethylpiperazin-4-yl)-3-[5-(3-Methoxypropyl)Pyridin-2-yl]Isoquinoline Oxalate]	2.9 nM	20.4 nM
CCOCCCc1ccc(-c2cc3ccccc3c(N3CCN(CC)CC3)n2)cn1 [Example 142, 1-(1-Ethylpiperazin-4-yl)-3-[2-(3-Ethoxypropyl)Pyridin-5-yl]Isoquinoline Oxalate]	3.3 nM	15.2 nM

Source: patent publication US6875761B2 (Eisai Co., Ltd., priority 1997, dated 2005)
